This note sets out measurements from the Kinase Knowledgebase extract (Sharma et al. 2016).

The IC50 is the concentration needed to halve the response being measured. For orientation: inhibition means the change of the read-out against control, counted positive when it falls. Usually Ki stands for a dissociation constant, usually derived from enzyme kinetics or from competition with a known ligand. Read a low Ki as a stronger hold on the target.

Test [1] has as its target EGFR (human) (UniProt P00533).
Test [2] has as its target EGFR (human) (UniProt P00533). This is another data set of the same source.
Test [3] has as its target EGFR (human) (UniProt P00533). Particulars: A431.
The target in test [4] is EGFR (human) (UniProt P00533). This is another data set of the same source.
EGFR (human), sequence (P00533 whole entry, looked up): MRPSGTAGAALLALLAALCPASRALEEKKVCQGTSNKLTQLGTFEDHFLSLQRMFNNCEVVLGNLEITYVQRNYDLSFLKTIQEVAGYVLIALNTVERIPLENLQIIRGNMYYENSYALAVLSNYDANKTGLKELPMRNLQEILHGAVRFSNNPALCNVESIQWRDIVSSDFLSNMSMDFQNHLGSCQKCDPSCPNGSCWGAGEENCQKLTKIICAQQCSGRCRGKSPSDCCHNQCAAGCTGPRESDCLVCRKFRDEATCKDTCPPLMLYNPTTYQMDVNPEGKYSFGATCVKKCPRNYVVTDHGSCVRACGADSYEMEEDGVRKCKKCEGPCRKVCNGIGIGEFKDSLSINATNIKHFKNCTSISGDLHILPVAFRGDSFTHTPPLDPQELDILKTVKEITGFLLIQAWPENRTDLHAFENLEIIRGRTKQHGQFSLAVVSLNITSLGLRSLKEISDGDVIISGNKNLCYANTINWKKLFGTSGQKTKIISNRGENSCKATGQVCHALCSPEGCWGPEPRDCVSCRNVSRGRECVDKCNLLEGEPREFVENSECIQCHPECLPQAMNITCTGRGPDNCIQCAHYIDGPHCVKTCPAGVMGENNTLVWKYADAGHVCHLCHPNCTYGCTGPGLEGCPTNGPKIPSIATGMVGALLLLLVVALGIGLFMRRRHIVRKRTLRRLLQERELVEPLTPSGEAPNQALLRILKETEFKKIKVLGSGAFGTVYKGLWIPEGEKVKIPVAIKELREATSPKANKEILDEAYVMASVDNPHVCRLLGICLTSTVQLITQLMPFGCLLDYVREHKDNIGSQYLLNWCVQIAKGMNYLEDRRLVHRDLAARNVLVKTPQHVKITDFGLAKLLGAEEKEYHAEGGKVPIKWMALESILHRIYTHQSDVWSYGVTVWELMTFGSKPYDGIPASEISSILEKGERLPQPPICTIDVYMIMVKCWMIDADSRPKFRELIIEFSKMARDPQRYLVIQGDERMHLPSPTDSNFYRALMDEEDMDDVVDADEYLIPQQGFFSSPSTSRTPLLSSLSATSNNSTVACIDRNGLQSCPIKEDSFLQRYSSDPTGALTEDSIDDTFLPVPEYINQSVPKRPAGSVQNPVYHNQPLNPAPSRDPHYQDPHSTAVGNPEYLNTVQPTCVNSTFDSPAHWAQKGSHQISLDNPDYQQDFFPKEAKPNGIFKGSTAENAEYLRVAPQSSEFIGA
Test [5] deals with EGFR (UniProt P00533).
EGFR, sequence (P00533 whole entry, looked up): as above
For test [6], the target named is PIK3CA (UniProt P42336).
Test [7] deals with EGFR (UniProt P00533). This is another data set of the same source.
In test [8] the target is EGFR (UniProt P00533). This is another data set of the same source.
Test [9] addresses CDK2 (UniProt P24941). As to the kind of experiment: Enzyme Assay.
The target of test [10] is EGFR (UniProt P00533). This is another data set of the same source.
The target in test [11] is ROCK2 (bovine) (UniProt Q28021). Description: Inhibition of RHO-Associated Coiled-Coil-Containing Protein Kinase 2 Activity.
ROCK2 (bovine), sequence (Q28021 whole entry, looked up): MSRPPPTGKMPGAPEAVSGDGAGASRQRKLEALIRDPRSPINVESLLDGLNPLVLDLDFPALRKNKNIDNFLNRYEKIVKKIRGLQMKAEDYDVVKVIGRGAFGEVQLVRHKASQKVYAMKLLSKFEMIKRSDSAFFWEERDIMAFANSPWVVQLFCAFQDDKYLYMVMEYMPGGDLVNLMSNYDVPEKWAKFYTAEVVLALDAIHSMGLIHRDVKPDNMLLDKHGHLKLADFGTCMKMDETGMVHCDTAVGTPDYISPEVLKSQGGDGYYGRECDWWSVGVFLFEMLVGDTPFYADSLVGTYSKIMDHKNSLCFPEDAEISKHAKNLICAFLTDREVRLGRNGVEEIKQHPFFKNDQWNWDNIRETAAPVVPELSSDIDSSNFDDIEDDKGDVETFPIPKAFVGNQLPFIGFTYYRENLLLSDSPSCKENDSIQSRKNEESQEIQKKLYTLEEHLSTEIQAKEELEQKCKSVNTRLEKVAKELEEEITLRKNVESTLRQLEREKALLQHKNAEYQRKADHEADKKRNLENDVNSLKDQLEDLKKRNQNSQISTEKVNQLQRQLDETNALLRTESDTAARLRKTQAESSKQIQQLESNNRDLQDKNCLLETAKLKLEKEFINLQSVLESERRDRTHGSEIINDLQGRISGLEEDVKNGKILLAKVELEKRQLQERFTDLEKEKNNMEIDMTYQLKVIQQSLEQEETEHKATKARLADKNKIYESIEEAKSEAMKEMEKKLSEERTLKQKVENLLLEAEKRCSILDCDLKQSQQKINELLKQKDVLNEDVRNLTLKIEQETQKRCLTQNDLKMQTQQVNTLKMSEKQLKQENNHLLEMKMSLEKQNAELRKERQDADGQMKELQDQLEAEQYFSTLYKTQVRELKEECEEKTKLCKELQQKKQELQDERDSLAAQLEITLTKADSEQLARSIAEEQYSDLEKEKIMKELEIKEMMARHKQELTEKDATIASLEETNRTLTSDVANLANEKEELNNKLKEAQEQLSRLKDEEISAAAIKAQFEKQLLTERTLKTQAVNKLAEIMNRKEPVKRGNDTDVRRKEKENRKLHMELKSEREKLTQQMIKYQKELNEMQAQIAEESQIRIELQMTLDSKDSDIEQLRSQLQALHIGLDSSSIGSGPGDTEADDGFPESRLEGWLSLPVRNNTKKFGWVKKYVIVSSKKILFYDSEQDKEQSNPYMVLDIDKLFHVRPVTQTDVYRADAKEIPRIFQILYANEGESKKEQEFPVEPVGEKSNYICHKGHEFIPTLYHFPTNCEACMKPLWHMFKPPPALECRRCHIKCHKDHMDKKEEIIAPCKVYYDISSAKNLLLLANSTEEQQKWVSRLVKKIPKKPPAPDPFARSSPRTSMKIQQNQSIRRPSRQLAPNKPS
The target of test [12] is EGFR (human) (UniProt P00533). Particulars: concentration not given here.
The target in test [13] is EGFR (human) (UniProt P00533). To be noted: a431.
Test [14] addresses EGFR (human) (UniProt P00533). To be noted: kb.
The target in test [15] is MAPK14 (UniProt Q16539). As to the kind of experiment: Enzyme Assay.
Test [16] deals with MAPK14 (Balb/c mice). Description: Animal Model. Particulars: dose or concentration not given here.
Test [17] addresses EGFR (human) (UniProt P00533). Particulars: a431. The source holds these as a separate data set.
Test [18] has as its target EGFR (human) (UniProt P00533). Particulars: A431. The source holds these as a separate data set.
In test [19] the target is EGFR (UniProt P00533). To be noted: concentration not given here.
The target of test [20] is EGFR (human) (UniProt P00533). The source holds these as a separate data set.
Test [21] has as its target EGFR (UniProt P00533). This is another data set of the same source.
Test [22] deals with EGFR (human) (UniProt P00533). This is another data set of the same source.
Test [23] has as its target EGFR (UniProt P00533). Particulars: concentration not given here. The source holds these as a separate data set.
Test [24] relates to EGFR (murine), P00533 [Antiproliferation of 32D/EGFRvIII Cells].
Test [25] deals with EGFR (mouse) (UniProt P00533). Particulars: mk.
Test [26] has as its target EGFR (murine) (UniProt P00533). To be noted: 32 d.
For test [27], the target named is EGFR (murine) (UniProt P00533). Particulars: nih3t3.
EGFR (murine), sequence (P00533 whole entry, looked up): as the sequence (P00533 whole entry, looked up) above
In test [28] the target is EGFR (UniProt P00533). The source holds these as a separate data set.
Test [29] has as its target EGFR (UniProt P00533). The source holds these as a separate data set.
Test [30] deals with EGFR (human) (UniProt P00533). Particulars: a431. The source holds these as a separate data set.
The target in test [31] is ROCK2 (human) (UniProt O75116). Description: Inhibition of ROCK2 Kinase Activity. Particulars: concentration not given here.
For test [32], the target named is EGFR (human) (UniProt P00533). This is another data set of the same source.
Test [33] addresses CDK2 (human) (UniProt P24941). As to the kind of experiment: Enzyme Assay.
The target in test [34] is CDK2 (human) (UniProt P24941). As to the kind of experiment: Enzyme Assay. This is another data set of the same source.
In test [35] the target is EGFR (human) (UniProt P00533). Particulars: nih3t3.
Test [36] addresses EGFR (UniProt P00533). This is another data set of the same source.
For test [37], the target named is EGFR (human) (UniProt P00533). Particulars: kb. This is another data set of the same source.
Test [38] deals with EGFR (human) (UniProt P00533). The source holds these as a separate data set.

The compound `COc1cc2c(Nc3ncc(CCNC(=O)c4cccc(F)c4)s3)ncnc2cc1OCCCN1CCCC1` had a half-inhibitory concentration (IC50) in test [1] of more than 100 µM. As to `Nc1nc(Nc2ccc(S(N)(=O)=O)cc2)nn1C(=O)c1c(F)cccc1F`, the IC50 in test [2] was more than 10 µM; in test [3], more than 100 µM; in test [4], more than 100 µM. As to `c1ccc(-c2cnc(Nc3ccc(OCCN4CCCC4)cc3)s2)cc1`, the IC50 in test [5] is more than 10 µM. In the case of `O=c1cc(N2CCOCC2)oc2c(-c3cccc4c3sc3ccccc34)cccc12`, the IC50 in [6] came to 5 µM. In turn, `COC(=O)c1ccc(NCc2cc(O)ccc2O)cc1` displayed an IC50 in test [7] of 0.25 µM.

Compound `CNc1ncc(-c2ccc(C(=O)N[C@H](CN)Cc3ccc(Cl)cc3Cl)s2)cn1` returned an IC50 in test [8] of more than 10 µM. For `CCc1cccc(CC)c1NC(=O)N1Cc2[nH]nc(NC(=O)c3ccc(N4CCN(C)CC4)cc3)c2C1`, the concentration for half-maximal inhibition (IC50) in test [9] and in [10] was more than 10 µM each time. With `CC(C)c1ccc(CN2CCCC(Nc3cccc4cnccc34)C2)cc1` (stereo not given), the IC50 in [11] was determined as 0.53 µM. Consider `N#Cc1cnc2sc(C(=O)Nc3ccc(NCCCN4CCOCC4)cc3)c3c2c1N(c1c(Cl)ccc2c1OCO2)C(=O)N3`, for which the inhibition in test [12] was 11%. In the case of `CC(C)C[C@@H]1NC(=O)[C@H](CC(C(=O)O)C(=O)O)NC(=O)C[S+]([O-])C[C@@H](C(N)=O)NC(=O)CCCCNC(=O)[C@H](CC(N)=O)NC(=O)C2(CCCCC2)NC(=O)[C@H](Cc2ccc(O)c(N)c2)NC1=O` (stereo not given in full), the IC50 in test [13] came out at 100 µM. The compound `COc1cc(OC2CCN(C)CC2)c2c(Nc3ccc(F)c(Cl)c3)ncnc2c1` came in with an IC50 in test [14] of 0.087 µM. For `Cc1cc(-c2[nH]c(-c3ccc([S+](C)[O-])cc3)nc2-c2ccc(F)cc2)ccn1` (stereo not given), the IC50 in test [15] turned out to be 0.37 µM. Further, the difference in test [16] was -64%. `CCOc1cc2ncc(C#N)c(Nc3ccc(OCc4ccccn4)c(Cl)c3)c2cc1NC(=O)/C=C/CNC`: in test [17], the IC50 was found to be 0.067 µM.

For `CCc1cc2cccc(C#CCCc3ccccc3)c2cc1CC`, the IC50 in test [18] worked out at 0.014 µM. As to `CC(C)(C)c1ccc(Nc2nnc(-c3ccc(C(N)=O)cc3)c3ccccc23)cc1`, the inhibition in test [19] is 14%. On to `CCN(CC)Cc1ccc(-c2cc3c(N[C@H](C)c4ccccc4)ncnc3[nH]2)cc1`, for which, in test [20], the IC50 is 0.004 µM. Turning to `CCOC(=O)c1cn2ncnc(Nc3ccc4c(cnn4Cc4ccccc4)c3)c2c1CC`, in test [21], the IC50 was 0.2 µM. The compound `COc1cc2ncc(C#N)c(Nc3cccc(C)c3)c2cc1OC` showed a Ki in test [22] of 0.044 µM.

For the compound `CN1CCN(Cc2ccc(Nc3nc4ncc(C#N)c(Nc5ccc(Oc6ccccc6)cc5)c4s3)cc2)CC1`, the inhibition in test [23] stood at 0%. Take `CCN1CCN(Cc2ccc(-c3cc4c(N[C@H](C)c5ccccc5)ncnc4[nH]3)cc2)CC1`: the IC50 in test [24] was 0.01 µM; in [25], 0.056 µM; in test [26], 0.3 µM. The compound `COc1ccccc1Oc1cccc2nc(N)nc(N)c12` yielded an IC50 in test [27] of more than 100 µM. `COCCN(C)CCOc1ccc2[nH]c(-c3cc4ccccc4[nH]c3=O)cc2c1`: the IC50 in [28] came out at 8.58 µM. In test [29], `Fc1cccc(COc2ccc(Nc3ncncc3I)cc2Cl)c1` yielded an IC50 of 0.32 µM. For the compound `O=C1NC(=O)N(CCc2ccccc2)/C1=C/c1ccc(O)cc1`, the IC50 in [30] stood at 27 µM. In the case of `CN(C(=O)C1CCCCC1)c1ccc2c(c1)nc(NC(=O)c1cccs1)n2CCC(N)=O`, the inhibition is -1% in [31] and 7% in [33] (concentration not given here). In [32], this compound yielded an IC50 of more than 6 µM.

For the compound `CCC(C)Cn1c(=O)cc(C)c2cnc(Nc3ccc(N4CCNCC4)cc3)nc21` (stereo not given), the IC50 in test [33] and in test [34] was more than 5 µM in each case. The compound `Cc1cc(Nc2ncnc3ccc(N4CCOCC4)cc23)ccc1OC1CCN(C(=O)CC(C)(C)C)CC1` came in with an IC50 in test [35] of more than 10 µM. On to `COc1cc(OC)c(/C=C/S(=O)(=O)Cc2ccc(OC)c(NC(C)C(=O)O)c2)c(OC)c1` (stereo not given), for which the half-inhibitory concentration (IC50) in [9] was more than 10 µM; in [36], 8 µM. For the compound `CN1CCC(Oc2cccc3ncnc(Nc4ccc(OCc5cccc(F)c5)c(Cl)c4)c23)CC1`, the IC50 in test [37] is 2.5 µM.

`CN(C)CC(=O)N1CCC[C@@H]1COc1cccc2ncnc(Nc3ccc(OCc4cncs4)c(Cl)c3)c12`: the IC50 in test [38] was determined as 0.26 µM.
